Experimental data as given in patent US20240376436A1, “COMPOSITIONS AND METHODS FOR BIASING THE POLARITY OF ORGANOIDS” (STEMCELL TECHNOLOGIES CANADA INC., priority 2021, published 2024).

Legend:
[1] = tested on: apical-out organoids formed from human bronchial epithelial cells; assay: Counting ciliated cells among dissociated apical-out airway organoids; assay type: cell-based; conditions: FIG. 3; for percentage of ciliated cells: first donor, highest concentrations of the titrated inhibitor in the organoid medium
Experimental: Cells were cultured and dissociated in accordance with Example 1, and seeded into Aggrewell™ 400 plates (STEMCELL Technologies) that were prepared in accordance with Example 2. Aggregates were generated by seeding roughly 1.2×10^5 cells per well (100 cells per microwell) of an Aggrewell™ 400 plate. The cells were seeded in 500 μL of apical-out organoid medium comprising a basal medium and an inhibitor of notch signaling. The AggreWell™ plate was centrifuged for 3 min at 100 g in order to sediment the cells to the bottom of the microwell. The plates were then incubated for 24 h to 144 h at 37° C. and 5% CO2.
(§1) After the aggregates were formed and sufficiently matured in accordance with Example 3, 500 μL of fresh apical-out airway organoid medium was added to each well. The aggregates were then resuspended using a P1000 pipette and each well distributed to two wells of a 24-well plate (prepared as described in Example 2). The aggregates were incubated under non-adherent conditions in apical-out airway organoid medium for up to 15 days. A partial medium change was performed every second day.
Apical-out airway organoids formed in accordance with Example 4 were harvested on day 15, transferred to a 15 ml tube, and centrifuged at 150 g for 5 min. The supernatant was removed, and the organoids were washed once with DMEM. The washed organoids were resuspended in ACCUTASE (STEMCELL Technologies) and were incubated for 15 minutes at room temperature, before being dissociated to single cells by pipetting vigorously with a P1000 pipette. The single-cell suspension was diluted 1:1 with trypan blue and was then loaded to a Hemocytometer where the cells were counted manually. At the time the dissociated cells are counted, the number of ciliated cells can also be determined by visual inspection.
In one experiment, apical-out organoids were formed from two donor samples in apical-out media formulated with different concentrations of an inhibitor of notch signaling and an inhibitor of TGFbeta signaling. […]

[2] = tested on: apical-out organoids generated from passage 6 pulmonary lineage cells; assay: Imaging of ciliation of apical-out organoids; assay type: cell-based, human; conditions: passage 6 cells; medium comprising an inhibitor of TGFbeta signaling and Y-27632; FIG. 7A
Experimental: as §1
Fully mature organoids, formed in accordance with Example 4, were imaged using a standard microscope camera. For example, the organoids may be imaged using a Leica DMi8 or an EVOS M500.
Representative images of apical-out organoids generated from passage 6 pulmonary lineage cells from a donor are shown in FIG. 7.

| Compound | percentage of ciliated cells [1] | emergence of ciliated cells ([1]; second donor, lower concentrations in the organoid medium) | ciliation of organoids (representative images) [2] |
| --- | --- | --- | --- |
| Cc1cccc(-c2[nH]ncc2-c2ccnc3ccccc23)n1 [A77-01] | decreased percentage of ciliated cells | detrimental to the emergence of ciliated cells | – |
| C[C@H](NC(=O)Cc1cc(F)cc(F)c1)C(=O)N[C@H](C(=O)OC(C)(C)C)c1ccccc1 [DAPT] | decreased percentage of ciliated cells | – | – |
| C[C@@H](N)[C@H]1CC[C@H](C(=O)Nc2ccncc2)CC1 [Y-27632] | – | – | patchy ciliation |
